According to PMC11341980, “Dual TTK/PLK1 inhibition has potent anticancer activity in TNBC as monotherapy and in combination” (Frontiers in Oncology, 2024):
Marks after values point to notes of the source that are not given here.

How the values were obtained:
[1] = tested on: HT29 cells; assay: Flow cytometry cell cycle analysis; format: cell-based; conditions: nocodazole treatment
Experimental: Cells were fixed in 70% high grade ethanol, washed in PBS, incubated in propidium iodide (PI) solution (50 μg/mL PI and 0.5 mg/mL RNAse A, Sigma-Aldrich, in PBS) for 30 min and analyzed using a BD FACSCanto II flow cytometer (BD Biosciences).

[2] = tested on: KT-associated BubR1; assay: Immunofluorescence of BubR1 at kinetochores in HT29 cells; format: cell-based; conditions: nocodazole-blocked mitotic HT29 cells, 1 hour, GI50 concentration
Experimental: Immunoblotting, SAC co-immunoprecipitation assays and immunofluorescence microscopy were performed using standard procedures as outlined in the Supplementary Information .
Cells were seeded on 13-mm glass coverslips in full medium and left to adhere O/N. After the appropriate treatments, cells were fixed with ice-cold 100% methanol for 5 min at -20°C and then rehydrated in PBS for 10 min. Coverslips were blocked for 30 min with 3% BSA (w/v) in PBS (BP) and then incubated with a 1:100 or 1:1000 dilution of BubR1 or CENP-C primary antibodies in BP, respectively, for 1 h in a moist environment. […] Images were projected (maximum intensity projection) using the NIS Elements AR software (Nikon) and quantification was performed using the General Analysis 2 tool. The quantification process comprised the following steps: selection of mitotic cells via intensity measurement of a threshold DAPI signal; generation of a kinetochore mask based on the intensity of bright spots (CENPC signal) inside the selected nuclei; generation of a tertiary mask for the BubR1 signal at kinetochores and BubR1 background measurements in the selected nuclei; export of reference images and signal intensities per cell.

[3] = tested on: MDA-MB-231 xenograft; set-up: method as in PMID 28270606; conditions: daily dosing, MDA-MB-231 xenografted mice; cited from earlier work
[4] = tested on: HT29 cells; assay: Cell growth assay, GI50s used for SAC analyses; format: cell-based; conditions: Homo sapiens, HT-29; 120 h cell growth assay
Experimental: Cell lines were seeded in appropriate culture medium into 96-well plates and 9 serial compound dilutions (0.004 – 1 μM) were added 24 h later for 120 h. Residual cells were stained with crystal violet or YO-PRO (Molecular Probes, #Y-3603). GI50 values were calculated by fitting the data to a sigmoidal dose–response model with a variable slope using GraphPad Prism software after subtraction of the starting control signal.

[5] = tested on: BR1282 TNBC PDX; conditions: paclitaxel 15 mg/kg, QW, IV alone
Experimental: (§1) Animal studies were performed by Charles-River Laboratories (Wilmington, Massachusetts, USA; MDA-MB-231 xenograft experiments) or Crown Biosciences Inc, (Taicang, China; SK-OV-3 xenograft and TNBC PDX screening experiments). All studies were performed in adherence with local ethical rules.
5x10^6 MDA-MB-231 cells were injected subcutaneously (s.c.) in the flank of NCr nude mice (n=8-15/group for efficacy experiments, n=2-3/group for tumor pharmacodynamic evaluation), 1x10^7 SK-OV-3 cells were injected s.c. in the flank of Balb/c nude mice (n=8/group) and specific PDX tumor fragments (3x3x3 mm^3) were inoculated s.c. in the flank of Balb/c nude mice or NOD/SCID mice (n=4-5/group for efficacy screening and tumor pharmacodynamic experiments, n=8/group for combination experiments). Mice were randomly grouped based on a mean tumor volume (TV) of 100-200 mm^3. For dedicated pharmacodynamic studies, treatment began with TVs of ~400 mm^3. Mice were culled when individual tumors exceeded 1500 mm^3 or if the body-weight loss (BWL) was >15% for 3 consecutive days or reached 20%. Dosing holidays were given to allow recovery for BWL >10%. When the endpoint was reached, mice were culled and plasma and tissue samples obtained. Samples were snap frozen and stored at -80 °C. In some cases, tumors were formalin-fixed and paraffin-embedded (FFPE) following standard procedures. […] Paclitaxel (6 mg/mL) was prepared using the clinical formulation (Cremophor-EL) and diluted in 0.9% saline just prior to use. Carboplatin was prepared in 5% glucose in pure water. Dosing and combination regimens for each specific experiment are outlined in the text.
BW is presented as the % ΔBW and as the fractional-change (endpoint/treatment-start) for each group. As an assessment of synergy, the Clarke-Combination-Index (CCI) was applied ([32]) where a CCI of <-0.1 was considered synergistic, >+0.1 antagonistic, and in-between, additive.
Paclitaxel (15 mg/kg) was administered IV QW to BR1282 PDX-bearing mice. […]

[6] = tested on: SK-OV-3 ovarian cell-derived xenograft; assay: SK-OV-3 xenograft combination study with carboplatin; conditions: carboplatin 60 mg/kg, QW, IV alone
Experimental: as §1
5x10^6 MDA-MB-231 cells were injected subcutaneously (s.c.) in the flank of NCr nude mice (n=8-15/group for efficacy experiments, n=2-3/group for tumor pharmacodynamic evaluation), 1x10^7 SK-OV-3 cells were injected s.c. in the flank of Balb/c nude mice (n=8/group) and specific PDX tumor fragments (3x3x3 mm^3) were inoculated s.c. in the flank of Balb/c nude mice or NOD/SCID mice (n=4-5/group for efficacy screening and tumor pharmacodynamic experiments, n=8/group for combination experiments). Mice were randomly grouped based on a mean tumor volume (TV) of 100-200 mm^3. For dedicated pharmacodynamic studies, treatment began with TVs of ~400 mm^3. Mice were culled when individual tumors exceeded 1500 mm^3 or if the body-weight loss (BWL) was >15% for 3 consecutive days or reached 20%. Dosing holidays were given to allow recovery for BWL >10%. When the endpoint was reached, mice were culled and plasma and tissue samples obtained. Samples were snap frozen and stored at -80 °C. In some cases, tumors were formalin-fixed and paraffin-embedded (FFPE) following standard procedures. […]

[7] = tested on: BR1282 TNBC PDX; assay: BR1282 PDX combination with carboplatin; format: in vivo, mice; conditions: carboplatin 60 mg/kg, IV, QW
Experimental: Samples were snap frozen and stored at -80 °C. […] Carboplatin was prepared in 5% glucose in pure water.

COC(=O)Nc1nc2ccc(C(=O)c3cccs3)cc2[nH]1 [nocodazole]
accumulation in G2/M of the cell cycle [1]: 67%

Cc1cc(-c2cnn3c(NC[C@H]4C[C@@](C)(O)C4)cc(Oc4cccnc4)nc23)ccc1C(=O)NC1CC1 [CFI-402257]
reduction in KT-associated BubR1 [2]: Some reduction
maximum tumor growth inhibition [3]: 89%
GI50 [4]: 31 to 38 nM

CN1CCN(c2ccc(OC(F)(F)F)c(Nc3ncc4c(n3)-c3c(c(C(N)=O)nn3CCO)CC4)c2)CC1 [onvansertib]
reduction in KT-associated BubR1 [2]: minor effects
GI50 [4]: 14 nM

CC(=O)O[C@H]1C(=O)[C@@]2(C)[C@H]([C@H](OC(=O)c3ccccc3)[C@]3(O)C[C@H](OC(=O)[C@H](O)[C@@H](NC(=O)c4ccccc4)c4ccccc4)C(C)=C1C3(C)C)[C@]1(OC(C)=O)CO[C@@H]1C[C@@H]2O [Paclitaxel]
Efficacy ΔT/C (day 16) ([5]; Study 1): 0.24
Regressions (%) (end of treatment day) ([5]; Study 1, day 37, regressions in 1/8 mice): 30 (37)* %
Efficacy ΔT/C (day 13) ([5]; Study 2): 0.48

N.N.O=C([O-])C1(C(=O)[O-])CCC1.[Pt+2] [Carboplatin]
Efficacy ΔT/C (day 23) [6]: 0.72
Tolerability ΔT/C (day 23) ([6]; body weight): 0.97
antitumor activity of monotherapy [7]: without activity
